Data reported in ChEMBL document CHEMBL6087388, “Hydrogen peroxide responsive theranostics for cancer-selective activation of DNA alkylators and real-time fluorescence monitoring in living cells” (Eur J Med Chem, 2024).

Legend:
MCF-10A [1] = test: Induction of DNA damage in human MCF-10A cells at 10 uM incubated for 48 hrs by Alkaline comet based EVOS digital inverted microscopic analysis; type: toxicity, cell-based
[2] = Drug localization in mitochondria of human MDA-MB-468 cells assessed as blue fluorescence at 5 uM incubated for 2 hrs by MitoTracker Red CMXRos based confocal microscopic analysis; type: ADME; details: mda-mb-468, 2 h
[3] = Drug localization in mitochondria of human MDA-MB-468 cells assessed as fluorescence at 5 uM pretreated with paraquat for […] by MitoTracker Red CMXRos based confocal microscopic analysis; type: ADME; details: time 1.5 hrs
[4] = Drug localization in mitochondria of human MDA-MB-468 cells assessed as accumulation of compound in mitochondria at 5 uM incubated for 0.5 hrs and measured after […] by MitoTracker Red CMXRos based confocal microscopic analysis; type: ADME; details: mda-mb-468, 2 h
[5] = Drug localization in nucleus of human MDA-MB-468 cells assessed as accumulation of compound in nucleus at 5 uM pretreated with paraquat for 10 hrs followed by compound addition and measured after […] by SYTO 9 or Hoechst 33342 staining based confocal microscopic analysis; type: ADME, subcellular; details: mda-mb-468, 10 h
[6] = Drug localization in nucleus of human MDA-MB-468 cells assessed as accumulation of compound in nucleus at 5 uM incubated for 0.5 hrs and measured after […] by SYTO 9 or Hoechst 33342 staining based confocal microscopic analysis; type: ADME, subcellular; details: mda-mb-468, 2 h
MCF-10A [7] = test: Induction of DNA damage in human MCF-10A cells at 5 uM incubated for 48 hrs by Alkaline comet based EVOS digital inverted microscopic analysis; type: toxicity, cell-based
[8] = Photophysical property of the compound assessed as relative quantum yield at 2 uM in PBS and DMSO relative to quinine sulfate; type: physicochemical; details: buffer

SMILES	Activity (MCF-10A [1])	Drug uptake [2]	Drug uptake [3]	Drug uptake [4]	Drug uptake [5]	Drug uptake [6]	Activity (MCF-10A [7])	Activity [8]
CC1(C)OB(c2ccc3cc(-n4cc(CCCCCCCCCOCc5cc(N(CCCl)CCCl)ccc5B5OC(C)(C)C(C)(C)O5)nn4)c(=O)oc3c2)OC1(C)C	Non-toxic	Not_active	Active	Active	Not_active	Not_active		
CC1(C)OB(c2ccc(N(CCCl)CCCl)cc2COCc2cn(-c3cc4ccc(O)cc4oc3=O)nn2)OC1(C)C		Active				Not_active	Non-toxic	0.17
CC1(C)OB(c2ccc3c(c2)Oc2cc(B4OC(C)(C)C(C)(C)O4)ccc2C32OC(=O)c3cc(-n4cc(CCCCCCCCCOCc5cc(N(CCCl)CCCl)ccc5B5OC(C)(C)C(C)(C)O5)nn4)ccc32)OC1(C)C		Not_active	Active	Active	Not_active	Not_active		
